These results are taken from patent publication US20240391902A1, “Crystalline Form of Compound” (Shenzhen Forward Pharmaceuticals Co., Limited, priority 2020, published 2024).

What is called solubility is how much of the substance goes into solution per volume.

Common to all, as to assay type: physicochemical
A short description of data set [1]: Solid storage stability test. To be noted: for chemical and physical stability after storage: solid/25° C./60% RH/open/1 week and/or solid/60° C./closed container/1 week. As for the experimental part: Each amorphous salt solid was weighed (two 2 mg samples were weighed for purity testing after solid storage stability study, and one 10 mg sample was weighed for XRPD testing after solid storage stability study) and placed in a glass vial. In a 25° C./60% RH solid storage stability test, the amorphous salt solid was placed in a 25° C./60% RH constant temperature and humidity chamber, and placed in the dark for 1 week (i.e. “solid/25° C./60% RH/open/1 week”), and in a 60° C. solid storage stability test, the amorphous salt solid was sealed in an oven at 60° C. and heated for 1 week in the dark (i.e. “solid/60° C./closed container/1 week”). Then the sample was taken out for purity testing, crystal form detection and appearance observation, respectively.

Data set [2] is described as follows: Solid solubility test (2 h and 24 h). To be noted: for Solubility measured at 2 h: 37° C., based on free base. Here is the method: 5 samples were weighed for each amorphous salt solid (equivalent to 20 mg of free base), and 10 mL of the following solvents were respectively added: 0.1N HCl solution (pH 1.0), 50 mM phosphate buffer (pH 4.5), FeSSIF-V1 (pH 5.0), FaSSIF-V1 (pH 6.5) and SGF (pH 2.0), and stirred at 37° C. for 2 h. The suspension was then centrifuged at 37° C., the supernatant was measured for solubility by HPLC, and the solid fraction was measured for XRPD. The target solubility was at least 2 mg (based on free base)/mL.

The nature of a further data set: Dynamic solubility test. To be noted: for dynamic solubility: room temperature, feeding concentration 10 mg/mL. As for the experimental part: Determination method: According to a feeding concentration of 10 mg/mL, about 50 mg of the sample were weighed and added to 5 mL of the corresponding medium, and the sample was dissolved by rotating at […] at room temperature.

[3] abbreviates: Test BS1: solid/25° C./60% RH/open/1 week.
Where [4] appears, read: Test BS2: solid/60° C./closed container/1 week.

Some results are limits rather than exact numbers.

For `C=CC(=O)Nc1cc(Nc2ncnc(-c3cn(C)c4ccccc34)n2)c(OC)cc1N(C)CCN(C)C` [Example 8], the Color result in data set [1] (setting [3]) was “no color change”. Besides, in data set [1] (setting [4]), the Color entry is “no color change”; the “Morphology (XRPD crystallinity)” value was “amorphous (FIG. 100),”; the “Morphology (agglomeration, appearance)” value is given as “no agglomeration”. For the same compound, the “chemical and physical stability after storage” value (shortened to “chemical and physical stability”) in data set [1] (listed as 1 eq. esylate salt) was “physically unstable”. For the same compound, in data set [1] (listed as amorphous 1 eq. esylate salt), the “chemical and physical stability” value was “physically unstable”. The “physical and chemical stability (in words)” value in data set [1] (solid/25° C./60% RH/open/1 week, listed as amorphous 1 eq. esylate salt) is “significant hygroscopicity (caking and fusion to a glassy state)”. For the same compound, the “physical and chemical stability (in words)” value in data set [1] (solid/60° C./closed container/1 week, listed as amorphous 1 eq. esylate salt) is “good physical and chemical stability”. Moreover, in data set [2] (Test ES4: FaSSIF-V1 (pH 6.5)), the “pH measured at 2 h” value is “(6.4)” and the “Solubility measured at 2 h” value is listed as over 2 mg/mL.
Take `C=CC(=O)Nc1cc(Nc2ncnc(-c3cn(C)c4ccccc34)n2)c(OC)cc1N(C)CCN(C)C` [Example 22]: the dynamic solubility in the data set “Dynamic solubility test” (FaSSIF, 0.5 h, listed as crystaline form II-A of mesylate salt) was 6600 µg/mL; in the data set “Dynamic solubility test” (FaSSIF, 1 h, listed as crystaline form II-A of mesylate salt) it was 6200 µg/mL; in the data set “Dynamic solubility test” (FaSSIF, 2 h, listed as crystaline form II-A of mesylate salt), 7000 µg/mL; in “Dynamic solubility test” (FaSSIF, 4 h, listed as crystaline form II-A of mesylate salt), 6900 µg/mL; in “Dynamic solubility test” (FaSSIF, 24 h, listed as crystaline form II-A of mesylate salt), 9900 µg/mL; in the data set “Dynamic solubility test” (SGF, 0.5 h, listed as crystaline form II-A of mesylate salt), over 10000 µg/mL. Besides, the dynamic solubility was over 10000 µg/mL in “Dynamic solubility test” (SGF, 1 h, listed as crystaline form II-A of mesylate salt); over 10000 µg/mL in “Dynamic solubility test” (SGF, 2 h, listed as crystaline form II-A of mesylate salt); over 10000 µg/mL in “Dynamic solubility test” (SGF, 4 h, listed as crystaline form II-A of mesylate salt); over 10000 µg/mL in “Dynamic solubility test” (SGF, 24 h, listed as crystaline form II-A of mesylate salt). The solubility in “Dynamic solubility test” (water, SGF, FaSSIF and FeSSIF, thermodynamic from solid, water, SGF, FaSSIF and FeSSIF, all time points, read-out: dynamic solubility in water, SGF, FaSSIF and FeSSIF (conclusion)) was over 4000 µg/mL.
In the case of `C=CC(=O)Nc1cc(Nc2ncnc(-c3cn(C)c4ccccc34)n2)c(OC)cc1N(C)CCN(C)C` [Example 7], the Color result in data set [1] (setting [3]) was “slight color change”; in data set [1] (setting [4]) it was “no color change”. Besides, the “Morphology (XRPD crystallinity)” value in data set [1] (setting [4]) is “amorphous (FIG. 98),”. Moreover, in data set [1] (setting [4]), the “Morphology (agglomeration, appearance)” value was “no agglomeration”. Further, the “chemical and physical stability” value in data set [1] (listed as 2 eq. besylate salt) and in data set [1] (listed as amorphous 2 eq. besylate salt) was “physically unstable” throughout. Moreover, the “physical and chemical stability (in words)” value was “slight color change and showed significant hygroscopicity (caking and fusion to a glassy state)” in data set [1] (solid/25° C./60% RH/open/1 week, listed as amorphous 2 eq. besylate salt); “good physical and chemical stability” in data set [1] (solid/60° C./closed container/1 week, listed as amorphous 2 eq. besylate salt). Also, the “pH measured at 2 h” value in data set [2] (Test ES4: FaSSIF-V1 (pH 6.5)) is “(6.1)”. In addition, the “Solubility measured at 2 h” value in data set [2] (Test ES4: FaSSIF-V1 (pH 6.5)) is recorded as over 2 mg/mL.
As to `C=CC(=O)Nc1cc(Nc2ncnc(-c3cn(C)c4ccccc34)n2)c(OC)cc1N(C)CCN(C)C` [Example 10], the Color result in data set [1] (setting [3]) and in data set [1] (setting [4]) was “no color change” each time. Besides, the “Morphology (XRPD crystallinity)” value in data set [1] (setting [3]) and in data set [1] (setting [4]) was “no crystal form” throughout. Also, the “chemical and physical stability” value was “chemically and physically stable” in data set [1] (listed as 1 eq. hydrobromide salt); “chemically and physically stable” in data set [1] (listed as crystalline 1 eq. hydrobromide salt). The “physical and chemical stability (in words)” value in data set [1] (solid/25° C./60% RH/open/1 week, listed as crystalline 1 eq. hydrobromide salt) is “good physical and chemical stability”; in data set [1] (solid/60° C./closed container/1 week, listed as crystalline 1 eq. hydrobromide salt), “good physical and chemical stability”. In addition, the “XRPD measured at 2 h (solid fraction)” value in data set [2] (Test ES4: FaSSIF-V1 (pH 6.5)) is “hydrobromide”. Moreover, the “pH measured at 2 h” value in data set [2] (Test ES4: FaSSIF-V1 (pH 6.5)) is listed as “(6.4)”. Further, in data set [2] (Test ES5: SGF (pH 2.0)), the “Solubility measured at 2 h” value is over 2 mg/ml mg/mL.
Turning to `C=CC(=O)Nc1cc(Nc2ncnc(-c3cn(C)c4ccccc34)n2)c(OC)cc1N(C)CCN(C)C` [Example 6], the “Morphology (XRPD crystallinity)” value in data set [1] (setting [3]) and in data set [1] (setting [4]) was “amorphous (FIG. 96),” in each case. The “chemical and physical stability” value in data set [1] (listed as 1 eq. besylate salt) and in data set [1] (listed as amorphous 1 eq. besylate salt) was “chemically unstable” throughout. In data set [1] (solid/60° C./closed container/1 week, listed as amorphous 1 eq. besylate salt), the “physical and chemical stability (in words)” value is “good physical and chemical stability”.
In the case of `C=CC(=O)Nc1cc(Nc2ncnc(-c3cn(C)c4ccccc34)n2)c(OC)cc1N(C)CCN(C)C` [Example 23], the dynamic solubility in “Dynamic solubility test” (FaSSIF, 0.5 h, listed as crystaline form III-A of hydrochloride salt) is 5300 µg/mL; in “Dynamic solubility test” (FaSSIF, 1 h, listed as crystaline form III-A of hydrochloride salt), 5200 µg/mL; in “Dynamic solubility test” (FaSSIF, 2 h, listed as crystaline form III-A of hydrochloride salt) it was 5000 µg/mL; in the data set “Dynamic solubility test” (FaSSIF, 4 h, listed as crystaline form III-A of hydrochloride salt), 5000 µg/mL; in “Dynamic solubility test” (FaSSIF, 24 h, listed as crystaline form III-A of hydrochloride salt), 8200 µg/mL; in the data set “Dynamic solubility test” (SGF, 0.5 h, listed as crystaline form III-A of hydrochloride salt), over 10000 µg/mL. Besides, the dynamic solubility in “Dynamic solubility test” (SGF, 1 h, listed as crystaline form III-A of hydrochloride salt) was over 10000 µg/mL; in the data set “Dynamic solubility test” (SGF, 2 h, listed as crystaline form III-A of hydrochloride salt), over 10000 µg/mL; in “Dynamic solubility test” (SGF, 4 h, listed as crystaline form III-A of hydrochloride salt) it was over 10000 µg/mL; in the data set “Dynamic solubility test” (SGF, 24 h, listed as crystaline form III-A of hydrochloride salt) it was over 10000 µg/mL.
As to `C=CC(=O)Nc1cc(Nc2ncnc(-c3cn(C)c4ccccc34)n2)c(OC)cc1N(C)CCN(C)C` [Example 24], the dynamic solubility in the data set “Dynamic solubility test” (FaSSIF, 0.5 h, listed as crystaline form IV-C of maleate salt) is 6100 µg/mL; in the data set “Dynamic solubility test” (FaSSIF, 1 h, listed as crystaline form IV-C of maleate salt), 6200 µg/mL; in the data set “Dynamic solubility test” (SGF, 0.5 h, listed as crystaline form IV-C of maleate salt) it was over 10000 µg/mL; in the data set “Dynamic solubility test” (SGF, 1 h, listed as crystaline form IV-C of maleate salt) it was over 10000 µg/mL; in “Dynamic solubility test” (SGF, 2 h, listed as crystaline form IV-C of maleate salt) it was over 10000 µg/mL; in “Dynamic solubility test” (SGF, 4 h, listed as crystaline form IV-C of maleate salt) it was over 10000 µg/mL. Also, the dynamic solubility in the data set “Dynamic solubility test” (SGF, 24 h, listed as crystaline form IV-C of maleate salt) is over 10000 µg/mL.
